Reference: patent publication US20220257698A1, “ANGIOTENSIN TYPE 2 (AT2) RECEPTOR AGONISTS FOR USE IN THE TREATMENT OF CANCER” (LANTHIOPEP B.V., priority 2019, published 2022)

Test system: head & neck carcinoma PDX model HN10309
Experiment: KcAng(1-7) on growth of head & neck carcinoma PDX HN10309 in mice
Type: in vivo, NMRI nu/nu mice (human PDX)
Description: In vivo studies were conducted at EPO GmbH Berlin. Large studies (FIG. 1A, 2, 3, 4, 5) comprised 3 groups of 10 mice/group and 5 animals as reserve, as outlined in Table 1. Smaller studies (FIG. 1B, 1C, 1D) comprised 2 groups of mice of 3 mice per group. The animals were allocated to the various treatment groups (e.g. 0.2 μg/kg and 30 μg/kg) with a maximum of 10 animals per group. […] The groups received subcutaneous (s.c.) drug injection (for max. 28 days) as outlined in the Table 1.
NMRI nu/nu mice were used in this study. The animals were female at age of 6 to 8 weeks. The respective PDX tumors were inoculated subcutaneously (s.c.), and the tumors were grown to achieve palpable tumor sizes before start of the respective treatments. The PDX included breast (MaCa4151), colon (Co9689A), head & neck (HN10309), lung (Lu7433) and ovarian (OvCa13329) cancer (Table 2).
Treatment with KcAng(1-7) was started with palpable tumors after the randomization of animals regarding tumor volume. KcAng(1-7) was applied s.c. by daily injections at […] or 30 μg/kg dose for a maximum of 28 days (or earlier as defined by the humane end point for the study).
KcAng(1-7) was prepared as follows: The compounds was suspended in sterile PBS resulting in a clear solution. The remains of this formulation were stored at 4° C.
Tumor growth stimulatory or inhibitory activity of the KcAng(1-7) was evaluated by determination of tumor volumes (TV). During the study, tumor volumes and body weight were measured twice a week, and the ratio of the mean tumor volumes between the compound-treated group and the vehicle-treated group (T/C) was calculated.
Tumor volume=(tumor width)×(tumor width)×(tumor length)+2
T/C=T÷C • T: Mean estimated tumor volume of the compound-treated group • C: Mean estimated tumor volume of the vehicle-treated group

[1] = Gr. B 0.2 μg/kg/d s.c., Day 35 (Meas. 1)
[2] = Gr. B 0.2 μg/kg/d s.c., Day 38 (Meas. 2)
[3] = Gr. B 0.2 μg/kg/d s.c., Day 41 (Meas. 3)
[4] = Gr. B 0.2 μg/kg/d s.c., Day 45 (Meas. 4)
[5] = Gr. B 0.2 μg/kg/d s.c., Day 49 (Meas. 5)
[6] = Gr. B 0.2 μg/kg/d s.c., Day 52 (Meas. 6)
[7] = Gr. B 0.2 μg/kg/d s.c., Day 55 (Meas. 7)
[8] = Gr. B 0.2 μg/kg/d s.c., Day 58 (Meas. 8)
[9] = Gr. B 0.2 μg/kg/d s.c., Day 63 (Meas. 9)
[10] = Gr. C 30 μg/kg/d s.c., Day 35 (Meas. 1)
[11] = Gr. C 30 μg/kg/d s.c., Day 38 (Meas. 2)
[12] = Gr. C 30 μg/kg/d s.c., Day 41 (Meas. 3)
[13] = Gr. C 30 μg/kg/d s.c., Day 45 (Meas. 4)
[14] = Gr. C 30 μg/kg/d s.c., Day 49 (Meas. 5)
[15] = Gr. C 30 μg/kg/d s.c., Day 52 (Meas. 6)
[16] = Gr. C 30 μg/kg/d s.c., Day 55 (Meas. 7)
[17] = Gr. C 30 μg/kg/d s.c., Day 58 (Meas. 8)
[18] = Gr. C 30 μg/kg/d s.c., Day 63 (Meas. 9)

Substance: Lys-Asp-Arg-Val-Abu/Ala-Ile-His-Abu/Ala (KDRVAIHA; not fully specified; cyclic thioether (Abu/Ala bridge); VARIANT (5)..(5) /replace=“Abu”; VARIANT (8)..(8) /replace=“Abu”; SITE (1)..(8) /note=“Variant residues given in the sequence have no preference with respect to those in the annotations for variant positions”) [KcAng(1-7)]
- optT/C (30 μg/kg, day 14 of the treatment): 71%
- effect on tumor volume (0.2 and 30 μg/kg, 28 days): did not result in a reduction or increase in tumor volume
- RTV Mean [1]: 1
- RTV Median [1]: 1
- T/C [1]: 100.1%
- Tumor Vol. Mean [1]: 0.083 cm^3
- Tumor Vol. Median [1]: 0.064 cm^3
- RTV Mean [2]: 1.6
- RTV Median [2]: 1.7
- T/C [2]: 107.9%
- Tumor Vol. Mean [2]: 0.128 cm^3
- Tumor Vol. Median [2]: 0.085 cm^3
- RTV Mean [3]: 2.1
- RTV Median [3]: 2.1
- T/C [3]: 100.6%
- Tumor Vol. Mean [3]: 0.164 cm^3
- Tumor Vol. Median [3]: 0.14 cm^3
- RTV Mean [4]: 2.6
- RTV Median [4]: 2.5
- T/C [4]: 116.7%
- Tumor Vol. Mean [4]: 0.217 cm^3
- Tumor Vol. Median [4]: 0.158 cm^3
- RTV Mean [5]: 3.3
- RTV Median [5]: 3.2
- T/C [5]: 104.4%
- Tumor Vol. Mean [5]: 0.275 cm^3
- Tumor Vol. Median [5]: 0.209 cm^3
- RTV Mean [6]: 4.4
- RTV Median [6]: 4
- T/C [6]: 126.7%
- Tumor Vol. Mean [6]: 0.367 cm^3
- Tumor Vol. Median [6]: 0.303 cm^3
- RTV Mean [7]: 5.4
- RTV Median [7]: 4.8
- T/C [7]: 126.5%
- Tumor Vol. Mean [7]: 0.443 cm^3
- Tumor Vol. Median [7]: 0.366 cm^3
- RTV Mean [8]: 5.8
- RTV Median [8]: 4.9
- T/C [8]: 115.2%
- Tumor Vol. Mean [8]: 0.473 cm^3
- Tumor Vol. Median [8]: 0.437 cm^3
- RTV Mean [9]: 8.9
- RTV Median [9]: 7.3
- T/C [9]: 120.4%
- Tumor Vol. Mean [9]: 0.677 cm^3
- Tumor Vol. Median [9]: 0.64 cm^3
- RTV Mean [10]: 1
- RTV Median [10]: 1
- T/C [10]: 99.5%
- Tumor Vol. Mean [10]: 0.083 cm^3
- Tumor Vol. Median [10]: 0.077 cm^3
- RTV Mean [11]: 1.3
- RTV Median [11]: 1.3
- T/C [11]: 83.5%
- Tumor Vol. Mean [11]: 0.099 cm^3
- Tumor Vol. Median [11]: 0.092 cm^3
- RTV Mean [12]: 1.6
- RTV Median [12]: 1.5
- T/C [12]: 74.6%
- Tumor Vol. Mean [12]: 0.122 cm^3
- Tumor Vol. Median [12]: 0.117 cm^3
- RTV Mean [13]: 1.8
- RTV Median [13]: 1.7
- T/C [13]: 75%
- Tumor Vol. Mean [13]: 0.139 cm^3
- Tumor Vol. Median [13]: 0.135 cm^3
- RTV Mean [14]: 2.2
- RTV Median [14]: 2.2
- T/C [14]: 71.3%
- Tumor Vol. Mean [14]: 0.188 cm^3
- Tumor Vol. Median [14]: 0.187 cm^3
- RTV Mean [15]: 2.8
- RTV Median [15]: 2.9
- T/C [15]: 89.8%
- Tumor Vol. Mean [15]: 0.26 cm^3
- Tumor Vol. Median [15]: 0.236 cm^3
- RTV Mean [16]: 3.5
- RTV Median [16]: 3.5
- T/C [16]: 92.1%
- Tumor Vol. Mean [16]: 0.323 cm^3
- Tumor Vol. Median [16]: 0.283 cm^3
- RTV Mean [17]: 3.9
- RTV Median [17]: 4
- T/C [17]: 89.3%
- Tumor Vol. Mean [17]: 0.367 cm^3
- Tumor Vol. Median [17]: 0.303 cm^3
- RTV Mean [18]: 5.6
- RTV Median [18]: 5.8
- T/C [18]: 96.3%
- Tumor Vol. Mean [18]: 0.541 cm^3
- Tumor Vol. Median [18]: 0.505 cm^3
